Reference: the NIST ThermoML archive (doi:10.1016/j.jct.2009.04.002)
“And” between values parts separate entries of the source, which are not always exact repeats. Equal entries are not always repeated. ± gives the expanded uncertainty stated by the source.

Conditions: Liquid

CC(C)CCCCCCCOC(=O)c1ccccc1C(=O)OCCCCCCCC(C)C
Conditions | mass density, Vibrating tube method | viscosity, Falling or rolling sphere viscometry
333.15 K, 10000 kPa | 944.8 ± 1.4 kg/m3 and 945.3 ± 1.4 kg/m3 | –
333.15 K, 20000 kPa | 951 ± 1.4 kg/m3 and 951.5 ± 1.4 kg/m3 and 950.9 ± 1.4 kg/m3 | 23.5 ± 1.9 mPa·s and 22.4 ± 1.8 mPa·s and 23.2 ± 1.9 mPa·s
333.15 K, 30000 kPa | 956.7 ± 1.4 kg/m3 and 957.1 ± 1.4 kg/m3 and 956.6 ± 1.4 kg/m3 | 28.2 ± 2.3 mPa·s and 26.8 ± 2.2 mPa·s and 27.8 ± 2.3 mPa·s
333.15 K, 40000 kPa | 962.1 ± 1.4 kg/m3 and 962.5 ± 1.4 kg/m3 and 962 ± 1.4 kg/m3 | 33.7 ± 2.7 mPa·s and 31.9 ± 2.6 mPa·s and 33.1 ± 2.7 mPa·s
333.15 K, 50000 kPa | 967.2 ± 1.4 kg/m3 and 967.6 ± 1.4 kg/m3 and 967.1 ± 1.4 kg/m3 | 40 ± 3.2 mPa·s and 37.8 ± 3.1 mPa·s and 39.3 ± 3.2 mPa·s
333.15 K, 60000 kPa | 972.1 ± 1.4 kg/m3 and 972.5 ± 1.4 kg/m3 and 972 ± 1.4 kg/m3 | 47.5 ± 3.8 mPa·s and 44.5 ± 3.6 mPa·s and 46.6 ± 3.8 mPa·s
333.15 K, 70000 kPa | 976.7 ± 1.4 kg/m3 and 977.1 ± 1.4 kg/m3 and 976.6 ± 1.4 kg/m3 | –
348.15 K, 100 kPa | 927.9 ± 1.4 kg/m3 and 928.3 ± 1.4 kg/m3 and 927.7 ± 1.4 kg/m3 | –
348.15 K, 1000 kPa | 928.5 ± 1.4 kg/m3 and 929 ± 1.4 kg/m3 and 928.4 ± 1.4 kg/m3 | –
348.15 K, 5000 kPa | 931.4 ± 1.4 kg/m3 and 931.8 ± 1.4 kg/m3 and 931.2 ± 1.4 kg/m3 | –
348.15 K, 10000 kPa | 934.8 ± 1.4 kg/m3 and 935.3 ± 1.4 kg/m3 and 934.7 ± 1.4 kg/m3 | –
348.15 K, 20000 kPa | 941.3 ± 1.4 kg/m3 and 941.8 ± 1.4 kg/m3 and 941.2 ± 1.4 kg/m3 | –
348.15 K, 30000 kPa | 947.3 ± 1.4 kg/m3 and 947.8 ± 1.4 kg/m3 | –
348.15 K, 40000 kPa | 953 ± 1.4 kg/m3 and 953.5 ± 1.4 kg/m3 and 952.9 ± 1.4 kg/m3 | –
348.15 K, 50000 kPa | 958.4 ± 1.4 kg/m3 and 958.9 ± 1.4 kg/m3 | –
348.15 K, 60000 kPa | 963.6 ± 1.4 kg/m3 and 964 ± 1.4 kg/m3 and 963.5 ± 1.4 kg/m3 | –
348.15 K, 70000 kPa | 968.4 ± 1.4 kg/m3 and 968.8 ± 1.4 kg/m3 and 968.3 ± 1.4 kg/m3 | –
353.15 K, 100 kPa | – | 8.42 ± 0.68 mPa·s and 8.04 ± 0.65 mPa·s and 8.35 ± 0.68 mPa·s
353.15 K, 1000 kPa | – | 8.54 ± 0.69 mPa·s and 8.16 ± 0.66 mPa·s and 8.48 ± 0.69 mPa·s
353.15 K, 5000 kPa | – | 9.14 ± 0.74 mPa·s and 8.7 ± 0.7 mPa·s and 9.06 ± 0.73 mPa·s
353.15 K, 10000 kPa | – | 9.92 ± 0.8 mPa·s and 9.43 ± 0.76 mPa·s and 9.83 ± 0.79 mPa·s
353.15 K, 20000 kPa | – | 11.7 ± 0.9 mPa·s and 11 ± 0.9 mPa·s and 11.5 ± 0.9 mPa·s
353.15 K, 30000 kPa | – | 13.7 ± 1.1 mPa·s and 12.9 ± 1 mPa·s and 13.5 ± 1.1 mPa·s
353.15 K, 40000 kPa | – | 16 ± 1.3 mPa·s and 15.1 ± 1.2 mPa·s and 15.8 ± 1.3 mPa·s
353.15 K, 50000 kPa | – | 18.5 ± 1.5 mPa·s and 17.5 ± 1.4 mPa·s and 18.3 ± 1.5 mPa·s
353.15 K, 60000 kPa | – | 21.5 ± 1.7 mPa·s and 20.3 ± 1.6 mPa·s and 21.2 ± 1.7 mPa·s
373.15 K, 100 kPa | 909.5 ± 10 kg/m3 and 910 ± 10 kg/m3 and 909.4 ± 10 kg/m3 | 5.05 ± 0.41 mPa·s and 4.8 ± 0.39 mPa·s and 5.09 ± 0.41 mPa·s
373.15 K, 1000 kPa | 911 ± 10 kg/m3 and 911.6 ± 10 kg/m3 | 5.12 ± 0.41 mPa·s and 4.87 ± 0.39 mPa·s and 5.16 ± 0.42 mPa·s
373.15 K, 5000 kPa | 914.3 ± 10 kg/m3 and 914.8 ± 10 kg/m3 and 914.2 ± 10 kg/m3 | 5.44 ± 0.44 mPa·s and 5.17 ± 0.42 mPa·s and 5.47 ± 0.44 mPa·s
373.15 K, 10000 kPa | 918.1 ± 10 kg/m3 and 918.6 ± 10 kg/m3 and 918 ± 10 kg/m3 | 5.86 ± 0.47 mPa·s and 5.57 ± 0.45 mPa·s and 5.89 ± 0.47 mPa·s
373.15 K, 20000 kPa | 925.3 ± 10 kg/m3 and 925.9 ± 10 kg/m3 and 925.2 ± 10 kg/m3 | 6.79 ± 0.55 mPa·s and 6.44 ± 0.52 mPa·s and 6.8 ± 0.55 mPa·s
373.15 K, 30000 kPa | 931.9 ± 10 kg/m3 and 932.5 ± 10 kg/m3 | 7.83 ± 0.63 mPa·s and 7.42 ± 0.6 mPa·s
373.15 K, 40000 kPa | 938.1 ± 10 kg/m3 and 938.7 ± 10 kg/m3 | 9 ± 0.73 mPa·s and 8.52 ± 0.69 mPa·s and 8.98 ± 0.72 mPa·s
373.15 K, 50000 kPa | 943.9 ± 10 kg/m3 and 944.6 ± 10 kg/m3 and 944 ± 10 kg/m3 | 10.3 ± 0.8 mPa·s and 9.75 ± 0.79 mPa·s
373.15 K, 60000 kPa | 949.5 ± 10 kg/m3 and 950.1 ± 10 kg/m3 | 11.7 ± 0.9 mPa·s and 11.1 ± 0.9 mPa·s
373.15 K, 70000 kPa | 954.7 ± 10 kg/m3 and 955.2 ± 10 kg/m3 and 954.6 ± 10 kg/m3 | –
398.15 K, 100 kPa | 892.2 ± 10 kg/m3 and 892.8 ± 10 kg/m3 | –
398.15 K, 1000 kPa | 892.8 ± 10 kg/m3 and 893.5 ± 10 kg/m3 and 892.9 ± 10 kg/m3 | –
398.15 K, 5000 kPa | 896.4 ± 10 kg/m3 and 896.9 ± 10 kg/m3 and 896.3 ± 10 kg/m3 | –
398.15 K, 10000 kPa | 900.6 ± 10 kg/m3 and 901.1 ± 10 kg/m3 and 900.5 ± 10 kg/m3 | –
398.15 K, 20000 kPa | 908.6 ± 10 kg/m3 and 909.1 ± 10 kg/m3 and 908.5 ± 10 kg/m3 | –
398.15 K, 30000 kPa | 915.8 ± 10 kg/m3 and 916.4 ± 10 kg/m3 | –
398.15 K, 40000 kPa | 922.5 ± 10 kg/m3 and 923.2 ± 10 kg/m3 and 922.6 ± 10 kg/m3 | –
398.15 K, 50000 kPa | 928.8 ± 10 kg/m3 and 929.5 ± 10 kg/m3 and 928.9 ± 10 kg/m3 | –
398.15 K, 60000 kPa | 934.8 ± 10 kg/m3 and 935.5 ± 10 kg/m3 and 934.9 ± 10 kg/m3 | –
398.15 K, 70000 kPa | 940.4 ± 10 kg/m3 and 941 ± 10 kg/m3 | –

Conditions | mass density, SVM3000 rotational viscometer | viscosity, Rotational Automated Viscometer
333.15 K | 938.7 ± 13 kg/m3 and 938.3 ± 13 kg/m3 | 15.79 ± 0.33 mPa·s and 16.02 ± 0.32 mPa·s and 15.97 ± 0.32 mPa·s
338.15 K | 935.1 ± 13 kg/m3 and 934.7 ± 13 kg/m3 | 13.21 ± 0.27 mPa·s and 13.4 ± 0.27 mPa·s and 13.36 ± 0.27 mPa·s
343.15 K | 931.6 ± 13 kg/m3 and 931.1 ± 13 kg/m3 | 11.18 ± 0.23 mPa·s and 11.34 ± 0.23 mPa·s and 11.31 ± 0.23 mPa·s
348.15 K | 928 ± 13 kg/m3 and 927.6 ± 13 kg/m3 | 9.561 ± 0.2 mPa·s and 9.696 ± 0.2 mPa·s and 9.685 ± 0.19 mPa·s
353.15 K | 924.4 ± 13 kg/m3 and 924.1 ± 13 kg/m3 | 8.257 ± 0.17 mPa·s and 8.376 ± 0.17 mPa·s and 8.37 ± 0.17 mPa·s
358.15 K | 920.7 ± 13 kg/m3 and 920.9 ± 13 kg/m3 and 920.6 ± 13 kg/m3 | 7.193 ± 0.15 mPa·s and 7.3 ± 0.15 mPa·s and 7.297 ± 0.15 mPa·s
363.15 K | 917.2 ± 13 kg/m3 and 917.4 ± 13 kg/m3 and 917 ± 13 kg/m3 | 6.329 ± 0.13 mPa·s and 6.414 ± 0.13 mPa·s and 6.412 ± 0.13 mPa·s
368.15 K | 913.7 ± 13 kg/m3 and 913.9 ± 13 kg/m3 and 913.5 ± 13 kg/m3 | 5.602 ± 0.12 mPa·s and 5.677 ± 0.11 mPa·s and 5.675 ± 0.11 mPa·s
373.15 K | 910.3 ± 13 kg/m3 and 910.5 ± 13 kg/m3 and 910 ± 13 kg/m3 | 4.989 ± 0.1 mPa·s and 5.059 ± 0.1 mPa·s and 5.057 ± 0.1 mPa·s
